Laboratory results: the supplement of paper PMC11061612

Key:
Assay in all cases: Bliss excess, mean over the matrix (fraction); higher = more synergy
AM-38 (Glioblastoma) = system: AM-38 (Glioblastoma)
Summary of the method: (§1)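 Bliss excess equals the observed combination effect minus the expected value EA + EB − EA·EB, where EA and EB are the effects of each agent alone. Combination Emax is the second-highest inhibition within the matrix. Inhibition was scaled from CellTiter-Glo 2.0 luminescence, with 0 set by vehicle wells and 1 by blank wells, after 72 hours of two-drug dosing of cells plated in 1536-well plates.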

[1] = system: BHT-101 (Thyroid Gland Carcinoma)
Summary of the method: as §1

[2] = system: BxPC-3 (Pancreatic Carcinoma)
Summary of the method: as §1

[3] = system: IA-LM (Non-Small Cell Lung Carcinoma)
Summary of the method: as §1

IST-MEL1 (Melanoma) = system: IST-MEL1 (Melanoma)
Summary of the method: as §1

[4] = system: KP-4 (Pancreatic Carcinoma)
Summary of the method: as §1

[5] = system: MDA-MB-415 (Breast Carcinoma)
Summary of the method: as §1

[6] = system: MONO-MAC-6 (Acute Myeloid Leukemia)
Summary of the method: as §1

[7] = system: NAMALWA (Burkitt's Lymphoma)
Summary of the method: as §1

NCI-H2373 (Mesothelioma) = system: NCI-H2373 (Mesothelioma)
Summary of the method: as §1

[8] = system: PL4 (Pancreatic Carcinoma)
Summary of the method: as §1

[9] = system: Raji (Burkitt's Lymphoma)
Summary of the method: as §1

[10] = system: SCC-4 (Oral Cavity Carcinoma)
Summary of the method: as §1

[11] = system: SK-CO-1 (Colorectal Carcinoma)
Summary of the method: as §1

[12] = system: SNU-423 (Hepatocellular Carcinoma)
Summary of the method: as §1

[13] = system: SUP-M2 (T-Cell Non-Hodgkin's Lymphoma)
Summary of the method: as §1

[14] = system: SiHa (Cervical Carcinoma)
Summary of the method: as §1

[15] = system: T84 (Colorectal Carcinoma)
Summary of the method: as §1

WM35 (Melanoma) = system: WM35 (Melanoma)
Summary of the method: as §1

[16] = system: ZR-75-30 (Breast Carcinoma)
Summary of the method: as §1

| Structure (SMILES) | Bliss excess (AM-38 (Glioblastoma)) | Bliss excess [1] | Bliss excess [2] | Bliss excess [3] | Bliss excess (IST-MEL1 (Melanoma)) | Bliss excess [4] | Bliss excess [5] | Bliss excess [6] | Bliss excess [7] | Bliss excess (NCI-H2373 (Mesothelioma)) | Bliss excess [8] | Bliss excess [9] | Bliss excess [10] | Bliss excess [11] | Bliss excess [12] | Bliss excess [13] | Bliss excess [14] | Bliss excess [15] | Bliss excess (WM35 (Melanoma)) | Bliss excess [16] |
| --- | --- | --- | --- | --- | --- | --- | --- | --- | --- | --- | --- | --- | --- | --- | --- | --- | --- | --- | --- | --- |
| CN(CCO)CC[C@H](CSc1ccccc1)Nc1ccc(S(=O)(=O)NC(=O)c2ccc(N3CCC([C@@H](O)c4ccccc4-c4ccc(Cl)cc4)CC3)cc2)cc1S(=O)(=O)C(F)(F)F [AZD4320] + C[C@@H]1COCCN1C2=NC(=NC(=C2)C3(CC3)[S@](=N)(=O)C)C4=C5C=CNC5=NC=C4 [AZD6738] (first compound max 1 µM, 7x7, partner max 10 µM) | 0.0052 | -0.0067 | 0.0373 | -0.0404 | -0.0336 | -0.0444 | -0.0749 | 0.0003 | 0.0006 | -0.0303 | -0.066 | 0.0056 | -0.0961 | -0.0858 | -0.0359 | -0.0128 | -0.0492 | -0.0344 | -0.0182 | -0.0601 |
| CN(CCO)CC[C@H](CSc1ccccc1)Nc1ccc(S(=O)(=O)NC(=O)c2ccc(N3CCC([C@@H](O)c4ccccc4-c4ccc(Cl)cc4)CC3)cc2)cc1S(=O)(=O)C(F)(F)F [AZD4320] + C[C@@H](Nc1cc(F)cc(F)c1)c1cc(C(=O)N(C)C)cc2c(=O)cc(N3CCOCC3)oc12 [AZD8186] (first compound max 1 µM, 7x7, partner max 3 µM) | -0.0033 | -0.0192 | 0.0345 | 0.0085 | 0.0237 | 0.0087 | 0.0439 | 0.0342 | 0.0041 | -0.0561 | -0.0411 | 0.0133 | -0.0437 | -0.051 | -0.0628 | 0.0539 | -0.0165 | -0.0287 | 0.047 | -0.0251 |
| CN(CCO)CC[C@H](CSc1ccccc1)Nc1ccc(S(=O)(=O)NC(=O)c2ccc(N3CCC([C@@H](O)c4ccccc4-c4ccc(Cl)cc4)CC3)cc2)cc1S(=O)(=O)C(F)(F)F [AZD4320] + Cc1cc2ncnn2cc1Nc1ncc2c(n1)n(C1CCOCC1)c(=O)n2C [AZD7648] (first compound max 1 µM, 7x7, partner max 10 µM) | -0.003 | -0.0361 | -0.024 | -0.0482 | -0.0465 | -0.0578 | -0.0243 | 0.0106 | 0.0013 | -0.0389 | -0.0631 | 0.0189 | -0.0568 | -0.0224 | -0.0311 | 0.036 | -0.0385 | -0.0314 | -0.0122 | -0.0359 |
